Data as given in the supplement of paper PMC10307832.

Compound: Cc1cc([C@@H](C)Nc2ccccc2C(=O)O)c2nc(N3CCOCC3)cc(=O)n2c1 [AZD6482] + COc1cccc2cc(-c3nc([C@H]4CC[C@H](C(=O)O)CC4)n4ncnc(N)c34)[nH]c12 [OSI-027] (partner 0.5 µM)
Assay: relative viability (nuclei count vs DMSO), 5 days (fraction); higher = more cells survive
Conditions: first compound 0.08 µM
Outline: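 Lung cancer cell lines in 1536-well plates were dosed by pin tool the day after seeding, either with one drug alone or with a fixed anchor-drug dose plus five library-drug doses (not always all listed) in √10 steps. After 5 days, cells were fixed and their nuclei stained in one step (final 0.05% Triton X-100, 1% formaldehyde, 1 ug/ml Hoechst), then counted on 4× images. Relative viability is the nuclei count in treated wells divided by that in vehicle wells. Values are medians of duplicate plates.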

First: COR-L 105
Second: LOU-NH91
The relative viability of the first is higher: 0.75 for the first, 0.606 for the second.

First: ChaGo-K-1
Second: NCI-H2170
The relative viability of the first is lower: 0.634 for the first, 0.66 for the second.

Compared with NCI-H2405, HOP-62 is higher in relative viability: 0.46 for the first, 0.817 for the second.

Going from HCC-44 to NCI-H522, the relative viability rises from 0.46 to 0.599.

Compared with LU99A, BEN is higher in relative viability: 0.301 for the first, 0.314 for the second.

First: HARA
Second: SW 900
The relative viability of the first is lower: 0.318 for the first, 0.45 for the second.

Compared with HCC-78, NCI-H322M is higher in relative viability: 0.316 for the first, 0.523 for the second.

Going from LCLC-97TM1 to NCI-H441, the relative viability rises from 0.482 to 0.669.

Going from NCI-H1395 to NCI-H1793, the relative viability falls from 0.519 to 0.266.

Same assay, conditions: first compound 0.253 µM

Compared with NCI-H2342, NCI-H1623 is lower in relative viability: 0.586 for the first, 0.404 for the second.

Going from NCI-H727 to NCI-H1650, the relative viability rises from 0.521 to 0.636.

Compared with NCI-H1993, SW 1573 is lower in relative viability: 0.521 for the first, 0.52 for the second.

Going from NCI-H838 to LCLC-103H, the relative viability rises from 0.378 to 0.452.

Going from NCI-H520 to NCI-H2126, the relative viability rises from 0.176 to 0.652.

Going from EMC-BAC-2 to NCI-H2085, the relative viability rises from 0.376 to 0.478.

Going from HCC-366 to NCI-H1666, the relative viability falls from 0.801 to 0.765.

Compared with NCI-H596, LK-2 is lower in relative viability: 0.596 for the first, 0.2 for the second.

First: NCI-H2087
Second: NCI-H1648
The relative viability of the first is higher: 0.43 for the first, 0.268 for the second.

Compared with SK-MES-1, H3255 is lower in relative viability: 0.554 for the first, 0.53 for the second.

Compared with COR-L23, COR-L 105 is lower in relative viability: 0.791 for the first, 0.742 for the second.

Compared with LOU-NH91, ChaGo-K-1 is lower in relative viability: 0.702 for the first, 0.323 for the second.

Compared with NCI-H2170, HOP-62 is higher in relative viability: 0.631 for the first, 0.883 for the second.

First: HCC-44
Second: NCI-H522
The relative viability of the first is lower: 0.511 for the first, 0.784 for the second.

Compared with LU99A, BEN is higher in relative viability: 0.276 for the first, 0.302 for the second.

Compared with HARA, SW 900 is lower in relative viability: 0.528 for the first, 0.471 for the second.

Compared with HCC-78, NCI-H322M is higher in relative viability: 0.315 for the first, 0.497 for the second.

Compared with LCLC-97TM1, NCI-H441 is higher in relative viability: 0.399 for the first, 0.4 for the second.

Compared with NCI-H1395, NCI-H1793 is lower in relative viability: 0.433 for the first, 0.243 for the second.

Same assay, conditions: first compound 0.8 µM

First: NCI-H2342
Second: NCI-H1623
The relative viability of the first is higher: 0.568 for the first, 0.432 for the second.

Going from NCI-H727 to NCI-H1650, the relative viability rises from 0.511 to 0.569.

First: NCI-H1993
Second: SW 1573
The relative viability of the first is lower: 0.516 for the first, 0.558 for the second.

First: NCI-H838
Second: LCLC-103H
The relative viability of the first is lower: 0.355 for the first, 0.492 for the second.

Compared with NCI-H520, NCI-H2126 is higher in relative viability: 0.211 for the first, 0.704 for the second.

First: EMC-BAC-2
Second: NCI-H2085
The relative viability of the first is lower: 0.347 for the first, 0.473 for the second.

First: HCC-366
Second: NCI-H1666
The relative viability of the first is lower: 0.906 for the first, 0.918 for the second.

First: NCI-H596
Second: LK-2
The relative viability of the first is higher: 0.809 for the first, 0.177 for the second.

First: NCI-H2087
Second: NCI-H1648
The relative viability of the first is higher: 0.46 for the first, 0.245 for the second.

First: SK-MES-1
Second: H3255
The relative viability of the first is lower: 0.417 for the first, 0.554 for the second.

Compared with COR-L23, COR-L 105 is lower in relative viability: 0.911 for the first, 0.577 for the second.

First: LOU-NH91
Second: ChaGo-K-1
The relative viability of the first is higher: 0.66 for the first, 0.539 for the second.

Compared with NCI-H2170, NCI-H2405 is lower in relative viability: 0.612 for the first, 0.595 for the second.

First: HOP-62
Second: HCC-44
The relative viability of the first is higher: 0.774 for the first, 0.574 for the second.

Going from NCI-H522 to LU99A, the relative viability falls from 0.635 to 0.325.

Compared with BEN, HARA is higher in relative viability: 0.273 for the first, 0.633 for the second.

First: SW 900
Second: HCC-78
The relative viability of the first is higher: 0.433 for the first, 0.32 for the second.

First: NCI-H322M
Second: LCLC-97TM1
The relative viability of the first is higher: 0.531 for the first, 0.384 for the second.

Compared with NCI-H441, NCI-H1395 is lower in relative viability: 0.627 for the first, 0.553 for the second.

Work on NCI-H1793 yielded a relative viability of 0.261.

Same assay, conditions: first compound 2.53 µM

Compared with NCI-H2342, NCI-H1623 is lower in relative viability: 0.448 for the first, 0.388 for the second.

Going from NCI-H727 to NCI-H1650, the relative viability falls from 0.43 to 0.347.

First: NCI-H1993
Second: SW 1573
The relative viability of the first is higher: 0.529 for the first, 0.341 for the second.

Going from NCI-H838 to LCLC-103H, the relative viability rises from 0.199 to 0.273.

Going from NCI-H520 to NCI-H2126, the relative viability rises from 0.178 to 0.403.

Going from EMC-BAC-2 to NCI-H2085, the relative viability rises from 0.273 to 0.28.

Compared with HCC-366, NCI-H1666 is higher in relative viability: 0.574 for the first, 0.66 for the second.

First: NCI-H596
Second: LK-2
The relative viability of the first is higher: 0.732 for the first, 0.196 for the second.

First: NCI-H1648
Second: SK-MES-1
The relative viability of the first is lower: 0.228 for the first, 0.302 for the second.

First: H3255
Second: COR-L23
The relative viability of the first is lower: 0.411 for the first, 0.611 for the second.

Going from COR-L 105 to LOU-NH91, the relative viability rises from 0.33 to 0.455.

Compared with ChaGo-K-1, NCI-H2170 is higher in relative viability: 0.477 for the first, 0.531 for the second.

Compared with NCI-H2405, HOP-62 is higher in relative viability: 0.369 for the first, 0.553 for the second.

Compared with HCC-44, NCI-H522 is higher in relative viability: 0.37 for the first, 0.688 for the second.

Compared with LU99A, BEN is higher in relative viability: 0.203 for the first, 0.276 for the second.

Going from HARA to HCC-78, the relative viability rises from 0.249 to 0.265.

First: NCI-H322M
Second: LCLC-97TM1
The relative viability of the first is higher: 0.317 for the first, 0.255 for the second.

First: NCI-H1395
Second: NCI-H1793
The relative viability of the first is higher: 0.393 for the first, 0.132 for the second.

Same assay, conditions: first compound 8 µM

Going from NCI-H2342 to NCI-H1623, the relative viability falls from 0.471 to 0.397.

Going from NCI-H727 to NCI-H1650, the relative viability falls from 0.518 to 0.447.

Going from NCI-H1993 to SW 1573, the relative viability falls from 0.534 to 0.347.

Going from NCI-H838 to LCLC-103H, the relative viability rises from 0.27 to 0.31.

Going from NCI-H520 to NCI-H2126, the relative viability rises from 0.178 to 0.485.

First: EMC-BAC-2
Second: NCI-H2085
The relative viability of the first is lower: 0.316 for the first, 0.331 for the second.

Compared with HCC-366, NCI-H1666 is higher in relative viability: 0.515 for the first, 0.8 for the second.

Compared with NCI-H596, LK-2 is lower in relative viability: 0.559 for the first, 0.177 for the second.

Going from NCI-H2087 to NCI-H1648, the relative viability falls from 0.332 to 0.276.

Compared with SK-MES-1, H3255 is higher in relative viability: 0.293 for the first, 0.392 for the second.

Compared with COR-L23, COR-L 105 is lower in relative viability: 0.751 for the first, 0.517 for the second.

Compared with LOU-NH91, ChaGo-K-1 is lower in relative viability: 0.579 for the first, 0.49 for the second.

Going from NCI-H2170 to NCI-H2405, the relative viability falls from 0.677 to 0.336.

HOP-62 gave a relative viability of 0.765.
